Experimental data as given in article PMC5342692, “Hyperosmotic treatment synergistically boost efficiency of cell-permeable peptides” (Oncotarget, 2016).
Read-outs that look alike come from different tables or passages of the source. No end group written: not given here.

Key:
[1] = tested on: Caski cells; assay: Fluorescent quantitation of FITC-labeled peptide uptake; format: cell-based, human; conditions: for intracellular fluorescence intensity of FITC-labeled CPPs with GSM combination: Caski cells co-incubated with glucose, sucrose and manntiol, fluorescence quantitation (Figure 6A)
Method: Before the 10 μM FITC-labeled peptides addition, cells were washed with phosphate-buffered saline (0.1 M PBS, pH 7.4) for 3 times. After internalization for 1 h at 37°C, cells were washed 3 times with PBS, and then observed under fluorescence microscope (Nikon, Japan) using a bandpass filter (detects FITC). In some experiments, cell was pretreated with 5% (v/v %) of DMSO in serum-free medium.
Intracellular fluorescence intensity of cells can be quantified using quantitative analysis by Multimode Spectrophotometry (Tecan 2000, Mannedorf, Switzerland). Briefly, after peptide incubation procedure shown above, cells were washed 3 times with PBS, lysed by 0.1 M NaOH at room temperature, and then centrifuged at 14000 g for 5 min. […] The fluorescence of cellular uptake is expressed as fluorescence intensity per mg of total cellular protein (protein concentration were determined using Bradford protein assay). All experiments were repeated at least three times and always performed in triplicate.

[2] = tested on: HepG2 cells; assay: as above; conditions: HepG2 cells co-incubated with glucose, sucrose and manntiol; fluorescence quantitation (Figure 6B)
Method: (§1) HeLa, Siha, Caski, HepG2, A549 or B16 cells (density: 5 × 10^5 cells per well) were seeded into 24-well-plates (Greiner, Germany) and cultivated in RPMI-1640 medium for 24 h. Before the 10 μM FITC-labeled peptides addition, cells were washed with phosphate-buffered saline (0.1 M PBS, pH 7.4) for 3 times. After internalization for 1 h at 37°C, cells were washed 3 times with PBS, and then observed under fluorescence microscope (Nikon, Japan) using a bandpass filter (detects FITC). In some experiments, cell was pretreated with 5% (v/v %) of DMSO in serum-free medium.
Intracellular fluorescence intensity of cells can be quantified using quantitative analysis by Multimode Spectrophotometry (Tecan 2000, Mannedorf, Switzerland). Briefly, after peptide incubation procedure shown above, cells were washed 3 times with PBS, lysed by 0.1 M NaOH at room temperature, and then centrifuged at 14000 g for 5 min. The fluorescence intensity of the supernatant was measured at the wavelength of 494/518 nm in a Multimode Microplate Reader. The fluorescence of cellular uptake is expressed as fluorescence intensity per mg of total cellular protein (protein concentration were determined using Bradford protein assay). All experiments were repeated at least three times and always performed in triplicate.

[3] = tested on: A549 and Siha cells; format: cell-based, human
Method: as §1

[4] = tested on: Caski cells
Method: as §1

[5] = tested on: Caski cells; assay: MTT cell viability analysis; conditions: glycerol (30 mM) and glycine (15 mM) together
Method: MTT assay was used to assess cell viability. Briefly, cells (4 × 10^4 cells) were seeded in one well of 96-well plates and cultivated in an RPMI-1640 medium for 24 h. Cells were washed with PBS and then adding different concentrations of supplements with a serum-free medium, incubated for 2 h at 37°C and washed with PBS twice, then incubated with fresh medium containing serum for 24 h. Then, 20 μl of MTT (5.5 mg/ml) in serum-free media was added directly to each well and incubated for 4 h at 37°C. Removing the supernatant and then adding 100 μl of DMSO, and incubated at 37°C for another 30 min before quantifying the absorbance at 550 nm.

[6] = glycerol and glycine combination or separately, fluorescence quantitation (Figure 4D)

For RKDRRGGEMMKQKRQRE [NLS], the “intracellular fluorescence intensity of FITC-labeled CPPs with GSM combination” value (“intracellular fluorescence intensity” for short) [1] was “facilitate the penetration efficiency” and the “intracellular fluorescence intensity” value [2] was “facilitate the penetration efficiency”.
For YGRKKRRQRRRK [TAT-FITC], the “TAT uptake with glucose and manntiol in different cell lines” value [3] was “enhance the penetration of TAT uptake”, the “TAT penetration efficiency at different temperatures” value ([1]; 4 and 37°C, GSM combination (Figure 7B)) was “decreased at lower temperatures” and the “TAT penetration with GSM combination, effect of washing method” value ([1]; PBS washing vs 0.025% trypsin washing (Supplementary Figure S3)) was “no difference between PBS washing and 0.025% trypsin washing method”. For the same compound, the “TAT-FITC uptake with glucose and manntiol combination” value ([1]; co-incubated with glucose and manntiol (100 to 300 mM) 1 h, then TAT-FITC 1 h at 37°C, fluorescence quantitation (Figure 3B)) was “improved”, the “TAT-FITC uptake with glucose and sucrose combination” value ([1]; co-incubated with glucose and sucrose (100 to 300 mM) 1 h, then TAT-FITC 1 h at 37°C, fluorescence quantitation (Figure 3A)) was “improved” and the “TAT-FITC uptake with GSM combination” value ([1]; co-incubated with glucose, sucrose and manntiol (50 to 300 mM) 1 h, then TAT-FITC 1 h at 37°C, fluorescence quantitation (Figure 3D)) was “increasing as the concentration gradient”. The “TAT-FITC uptake with sucrose and manntiol combination” value ([1]; co-incubated with sucrose and manntiol (100 to 300 mM) 1 h, then TAT-FITC 1 h at 37°C, fluorescence quantitation (Figure 3C)) was “improved”, the “TAT penetration enhancement, dose ranging” value ([1]; glucose, sucrose, manntiol from 200 to 600 mM, lysate fluorescence 494/518 nm per mg protein (Figure 2B)) was “dependent on the concentration of glucose, sucrose and manntiol” and the “TAT-FITC penetration efficiency in the presence of glycerol and glycine” value [1, 6] was “not observed”. For the same compound, the “intracellular delivery efficiency of TAT-FITC with NH4Cl” value ([1]; lysosomotrophic neutralizing agent NH4Cl, in the presence of GSM combination (Figure 7D)) was “significantly decreased”, the “intracellular delivery efficiency of TAT-FITC with NaN3” value ([1]; metabolic inhibitor NaN3, in the presence of GSM combination (Figure 7C)) was “significantly decreased” and the “TAT penetration efficiency with serum” value ([1]; with vs without 10% fetal bovine serum (FBS), GSM combination (Figure 7A)) was “remains decreased”. For the same compound, the “TAT penetration efficiency with galactose treatment” value [4] was “partially enhance the penetration efficiency” and the “enhancement of TAT-FITC penetration by chloroquine” value [4] was “limited”.
With “KIPLPRFKLKCIFCKKRRKR [hPP10, newly found human-derived CPP labeled with FITC]” the “intracellular fluorescence intensity” value [1] was “facilitate the penetration efficiency”.
In the case of `OCC(O)CO` [glycerol], the “penetration enhancing activity on TAT-FITC” value [1, 6] is reported as “no significant penetration enhancing activity”.
With `NCC(=O)O` [glycine] the “penetration enhancing activity on TAT-FITC” value [1] was “no significant penetration enhancing activity”, the “cell viability (MTT) with glycerol and glycine addition during GSM treatment” value (“cell viability (MTT)” for short) ([5]; at 24 h (Figure 4A)) was “rescue the cell viability” and the “cell viability (MTT)” value ([5]; at 48 h (Figure 4B)) was “rescue the cell viability”. The “cell viability (MTT)” value ([5]; at 72 h (Figure 4C)) was “rescue the cell viability”.
